Legend:
[1] = system: Imidazolinone tolerant soybeans; test: Chlorophyll content (SPAD chlorophyll-meter), soybean pot experiment; type: in vivo; settings: 1 DAA; application at BBCH 14; pyraclostrobin 0.6 L/ha (250 g/L), imazapyr 0.3 L/ha (480 g/L)
[2] = system: Imidazolinone tolerant soybeans; test: Stomatal conductance gs (infrared gas analyzer), soybean pot experiment; type: in vivo; settings: 1 DAA; application at BBCH 14; pyraclostrobin 0.3 L/ha (250 g/L), imazapyr 0.075 L/ha (480 g/L)

Structure (SMILES) | Chlorophyll Content (SPAD) [1] | OE = observed efficacy (%), increase of chlorophyll content vs untreated control [1] [%] | OE = observed efficacy (%), increase of stomatal conductance vs untreated control [2] [%] | SC = Stomatal Conductance (gs) [2] [mol m^−2s^−1]
COC(=O)N(OC)c1ccccc1COc1ccn(-c2ccc(Cl)cc2)n1 [Pyraclostrobin, pyraclostrobin] | 27.6 | 2.6 | 7.4 | 0.421
CC(C)C1(C)N=C(c2ncccc2C(=O)O)NC1=O (centres unmarked) [Imazapyr, imazapyr] | 26.5 | −1.5 | −3.1 | 0.380
